SMILES strings stand for the structures.

Consider 35 molecules from patent US10112939B2, “Tied-back benzamide derivatives as potent rock inhibitors” (Bristol-Myers Squibb Company, priority 2014, dated 2018).

ROCK2, sequence (O75116 whole entry, species assumed): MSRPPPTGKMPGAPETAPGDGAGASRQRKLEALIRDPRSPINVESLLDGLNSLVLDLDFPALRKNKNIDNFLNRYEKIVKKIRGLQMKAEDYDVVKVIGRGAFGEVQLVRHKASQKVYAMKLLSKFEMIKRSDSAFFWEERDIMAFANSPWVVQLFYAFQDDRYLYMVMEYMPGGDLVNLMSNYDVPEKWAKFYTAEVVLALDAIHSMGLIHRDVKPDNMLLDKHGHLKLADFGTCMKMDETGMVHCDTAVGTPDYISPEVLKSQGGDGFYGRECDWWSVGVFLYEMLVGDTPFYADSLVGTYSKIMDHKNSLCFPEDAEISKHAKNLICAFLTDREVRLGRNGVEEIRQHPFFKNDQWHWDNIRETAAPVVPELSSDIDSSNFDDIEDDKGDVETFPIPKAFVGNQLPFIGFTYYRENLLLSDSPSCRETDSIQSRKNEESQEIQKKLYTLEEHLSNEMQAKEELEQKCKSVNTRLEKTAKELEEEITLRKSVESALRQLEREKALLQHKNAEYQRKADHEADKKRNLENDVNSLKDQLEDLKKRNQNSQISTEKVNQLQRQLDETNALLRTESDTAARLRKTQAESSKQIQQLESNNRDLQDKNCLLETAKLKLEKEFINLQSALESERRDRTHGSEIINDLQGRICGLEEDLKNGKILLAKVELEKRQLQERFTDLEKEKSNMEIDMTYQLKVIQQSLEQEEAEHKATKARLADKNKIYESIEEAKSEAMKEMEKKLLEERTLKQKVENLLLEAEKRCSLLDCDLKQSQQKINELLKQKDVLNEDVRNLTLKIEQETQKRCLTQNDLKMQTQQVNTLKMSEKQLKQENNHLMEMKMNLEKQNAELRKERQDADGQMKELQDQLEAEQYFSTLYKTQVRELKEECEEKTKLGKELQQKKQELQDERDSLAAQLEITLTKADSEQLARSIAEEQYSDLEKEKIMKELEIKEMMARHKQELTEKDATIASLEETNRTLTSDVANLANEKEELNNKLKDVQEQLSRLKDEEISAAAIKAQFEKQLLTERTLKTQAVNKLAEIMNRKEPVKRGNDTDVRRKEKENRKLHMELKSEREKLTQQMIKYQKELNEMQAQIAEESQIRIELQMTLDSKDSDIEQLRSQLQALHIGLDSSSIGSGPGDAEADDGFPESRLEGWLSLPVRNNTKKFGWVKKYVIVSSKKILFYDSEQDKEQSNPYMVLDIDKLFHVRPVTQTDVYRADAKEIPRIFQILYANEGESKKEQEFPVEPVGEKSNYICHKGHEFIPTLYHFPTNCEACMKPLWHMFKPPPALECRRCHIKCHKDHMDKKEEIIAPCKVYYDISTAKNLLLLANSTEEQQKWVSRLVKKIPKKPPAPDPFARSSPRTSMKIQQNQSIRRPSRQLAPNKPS

The first test has as its target ROCK2 (Homo sapiens (Human), UniProt O75116). The test can be described thus: ROCK assay (peptide substrate phosphorylation, LABCHIP 3000 Reader).
Settings: not given
The test is classed as biochemical. The procedure:
Compounds were dissolved in DMSO so that the final concentration of DMSO was <2%, and the reaction was initiated with Rho kinase variants. After incubation, the reaction was terminated by the addition of EDTA and the phosphorylated and non-phosphorylated peptides separated using a LABCHIP® 3000 Reader (Caliper Life Sciences). […] Compounds were tested in dose-response format, and the inhibition of kinase activity was calculated at each concentration of compound.
`COc1cc(C(=O)N2CCC[C@@H]2C(=O)N2CCc3ccccc32)ccc1-c1cn[nH]c1` [Example 111, 1-[(2R)-1-[3-Methoxy-4-(1H-pyrazol-4-yl)benzoyl]pyrrolidine-2-carbonyl]-2,3-dihydro-1H-indole] displayed an IC50 of 504 nM. In other words, the sub-micromolar range.

The same test, now with this note: 5 μM ATP, 1.5 μM peptide substrate.
Turning to `COc1cc(C(=O)N2CCCC2c2cccc(OCc3cc(C)on3)c2)ccc1-c1cn[nH]c1` (centres unmarked) [Example 103, 3-(3-{1-[3-Methoxy-4-(1H-pyrazol-4-yl)benzoyl]pyrrolidin-2-yl}phenoxymethyl)-5-methyl-1,2-oxazole], the IC50 was found to be 62 nM. This lies in the double-digit nanomolar range.

`COc1cc(C(=O)N2CCCC2c2cccc(OCC(F)F)c2)ccc1-c1cn[nH]c1` (centres unmarked) [Example 102, 4-(4-{2-[3-(2,2-Difluoroethoxy)phenyl]pyrrolidine-1-carbonyl}-2-methoxyphenyl)-1H-pyrazole] displayed a concentration for half-maximal inhibition (IC50) of 411 nM.

`COc1cc(C(=O)N2CC(OC)C[C@@H]2c2cccc(C(=O)NCC3CC3)c2)ccc1-c1cn[nH]c1` (stereo partly drawn) [Example 86, N-(Cyclopropylmethyl)-3-[(2R)-4-methoxy-1-[3-methoxy-4-(1H-pyrazol-4-yl)benzoyl]pyrrolidin-2-yl]benzamide]: it took 5.42 nM to reach half-maximal inhibition (IC50).

Regarding `COCCNC(=O)c1cccc([C@H]2CC(O)CN2C(=O)c2ccc(-c3cn[nH]c3)c(OC)c2)c1` (stereo partly drawn) [Example 50, 3-[(2R)-4-hydroxy-1-[3-methoxy-4-(1H-pyrazol-4-yl)benzoyl]pyrrolidin-2-yl]-N-(2-methoxyethyl) benzamide], the IC50 came to 5.1 nM. The IC50 values of the last two molecules are within 1.5-fold of each other.

The molecule `O=C(c1ccc(-c2cn[nH]c2)c(OC(F)F)c1)N1C[C@H](O)C[C@@H]1c1ccccc1F` [Example 94, (3R,5R)-1-[3-(Difluoromethoxy)-4-(1H-pyrazol-4-yl)benzoyl]-5-(2-fluorophenyl)pyrrolidin-3-ol] gave an IC50 of 73.3 nM.

Take `COc1cc(C(=O)N2C[C@](C)(O)C[C@@H]2c2cccc(C(=O)NCC3CC3)c2)ccc1-c1cn[nH]c1` [Example 88, N-(Cyclopropylmethyl)-3-[(2R,4R)-4-hydroxy-1-[3-methoxy-4-(1H-pyrazol-4-yl)benzoyl]-4-methylpyrrolidin-2-yl]benzamide]: the IC50 worked out at 10.6 nM.

`COc1cc(C(=O)N2CCCC2c2cccc(NC3CCN(C)CC3)c2)ccc1-c1cn[nH]c1` (centres unmarked) [Example 105, N-(3-{1-[3-Methoxy-4-(1H-pyrazol-4-yl)benzoyl]pyrrolidin-2-yl}phenyl)-1-methylpiperidin-4-amine] yielded an IC50 of 278 nM.

`COc1cc(C(=O)N2CC(O)C[C@@H]2c2cccc(C(=O)NCc3cc(F)cc(C(F)(F)F)c3)c2)ccc1-c1cn[nH]c1` (stereo partly drawn) [Example 66, N-{[3-fluoro-5-(trifluoromethyl)phenyl]methyl}-3-[(2R)-4-hydroxy-1-[3-methoxy-4-(1H-pyrazol-4-yl)benzoyl]pyrrolidin-2-yl]benzamide] gave an IC50 of 4.35 nM.

On to `COc1cc(C(=O)N2CC(O)C[C@@H]2c2cccc(C(=O)NCC3CC3)c2)ccc1-c1cn[nH]c1` (stereo partly drawn) [Example 51, N-(cyclopropylmethyl)-3-[(2R)-4-hydroxy-1-[3-methoxy-4-(1H-pyrazol-4-yl)benzoyl]pyrrolidin-2-yl]benzamide], for which the concentration for half-maximal inhibition (IC50) was determined as 2.71 nM.

For the molecule `COc1cc(C(=O)N2CCCC2c2ccc(C)cc2)ccc1-c1cn[nH]c1` (centres unmarked) [Example 23, 4-{2-methoxy-4-[2-(4-methyl-phenyl)pyrrolidine-1-carbonyl]phenyl}-1H-pyrazole], half-maximal inhibition (IC50) required 215 nM. Compared with the last molecule, the IC50 is about 79-fold higher.

The molecule `COc1cc(C(=O)N2C[C@@H](N)C[C@@H]2c2ccccc2F)ccc1-c1cn[nH]c1` [Example 106, (3S,5R)-5-(2-Fluorophenyl)-1-[3-methoxy-4-(1H-pyrazol-4-yl)benzoyl] pyrrolidin-3-amine] registered an IC50 of 0.87 nM.

The molecule `COc1cccc(C2CCCN2C(=O)c2ccc(-c3cn[nH]c3)c(C(C)O)c2)c1` (centres unmarked) [Example 100, 1-{5-[2-(3-Methoxyphenyl)pyrrolidine-1-carbonyl]-2-(1H-pyrazol-4-yl)phenyl}ethan-1-ol] gave an IC50 of 228 nM.

Turning to `COc1cccc(C2CCCN2C(=O)c2ccc(-c3ccncc3F)c(OC)c2)c1` (centres unmarked) [Example 84, 3-fluoro-4-{2-methoxy-4-[2-(3-methoxyphenyl)pyrrolidine-1-carbonyl]phenyl}pyridine], the concentration for half-maximal inhibition (IC50) came to 24.1 nM.

`COc1cc(C(=O)N2CCCC2c2cccc(-c3c(C)noc3C)c2)ccc1-c1cn[nH]c1` (centres unmarked) [Example 75, 4-(3-{1-[3-methoxy-4-(1H-pyrazol-4-yl)benzoyl]pyrrolidin-2-yl}phenyl)-3,5-dimethyl-1,2-oxazole] came in with an IC50 of 1570 nM.

For the molecule `COc1cccc(C2CCCN2C(=O)c2ccc(-c3ccnc(N)c3)c(OC)c2)c1` (centres unmarked) [Example 81, 4-{2-Methoxy-4-[2-(3-methoxyphenyl)pyrrolidine-1-carbonyl]phenyl} pyridin-2-amine], the half-inhibitory concentration (IC50) came out at 158 nM.

As to `COc1cc(C(=O)N2CCCC2c2cccc(-c3cn[nH]c3)c2)ccc1-c1cn[nH]c1` (centres unmarked) [Example 71, 4-(2-Methoxy-4-{2-[3-(1H-pyrazol-4-yl)phenyl]pyrrolidine-1-carbonyl}phenyl)-1H-pyrazole], the 50% inhibitory concentration (IC50) was determined as 54.9 nM.

With `COc1cccc(C2CCCN2C(=O)c2ccc(-c3ccnc4[nH]ccc34)c(OC)c2)c1` (centres unmarked) [Example 82, 1-(3-methoxy-4-{1H-pyrrolo[2,3-b]pyridin-4-yl}benzoyl)-2-(3-methoxyphenyl) pyrrolidine], the 50% inhibitory concentration (IC50) turned out to be 56.8 nM.

Molecule `COc1cc(C(=O)N[C@@H]2CNC[C@H]2c2ccccc2)ccc1-c1cn[nH]c1` [Example 69, 3-Methoxy-N-[(3S,4R)-4-phenylpyrrolidin-3-yl]-4-(1H-pyrazol-4-yl)benzamide] gave a 50% inhibitory concentration (IC50) of 3.59 nM.

`COc1cc(C(=O)N2CCCC2c2ccc3ccccc3c2)ccc1-c1cn[nH]c1` (centres unmarked) [Example 29, 4-{2-methoxy-4-[2-(naphthalen-2-yl)pyrrolidine-1-carbonyl]phenyl}-1H-pyrazole]: inhibition was half-maximal at 68.3 nM (IC50).

`COc1cc(C(=O)N2CC(O)C[C@@H]2c2cccc(C(=O)NC3CCOCC3)c2)ccc1-c1cn[nH]c1` (stereo partly drawn) [Example 56, 3-[(2R)-4-hydroxy-1-[3-methoxy-4-(1H-pyrazol-4-yl)benzoyl]pyrrolidin-2-yl]-N-(oxan-4-yl)benzamide] returned an IC50 of 7.17 nM. This IC50 lies about 9.5-fold lower than the previous one.

The molecule `COc1cc(C(=O)N2CCCCC2c2ccccc2F)ccc1-c1cn[nH]c1` (centres unmarked) [Example 8, 2-(2-fluorophenyl)-1-[3-methoxy-4-(1H-pyrazol-4-yl)benzoyl] piperidine] came in with an IC50 of 85.8 nM.

In the case of `COc1cc(C(=O)N2CCCC2c2ccccc2OC)ccc1-c1cn[nH]c1` (centres unmarked) [Example 6, 4-{2-methoxy-4-[2-(2-methoxyphenyl)pyrrolidine-1-carbonyl]phenyl}-1H-pyrazole], the half-maximal inhibitory concentration (IC50) is 511 nM. This IC50 is about 6-fold higher than that of the molecule before.

`COc1cc(C(=O)N2CC(O)C[C@@H]2c2cccc(C(=O)NCc3ncco3)c2)ccc1-c1cn[nH]c1` (stereo partly drawn) [Example 55, 3-[(2R)-4-hydroxy-1-[3-methoxy-4-(1H-pyrazol-4-yl)benzoyl]pyrrolidin-2-yl]-N-(1,3-oxazol-2-ylmethyl)benzamide] gave an IC50 of 2.5 nM.

Molecule `COc1cc(C(=O)N2CCC[C@@H]2c2cccc(C(=O)N(C)C)c2)ccc1-c1cn[nH]c1` [Example 40, 3-[(2R)-1-[3-methoxy-4-(1H-pyrazol-4-yl)benzoyl]pyrrolidin-2-yl]-N,N-dimethylbenzamide] had an IC50 of 725 nM.

Consider `CS(=O)(=O)c1cccc([C@H]2CC(O)CN2C(=O)c2ccc(-c3ccnc4[nH]ccc34)cc2)c1` (stereo partly drawn) [Example 99, (5R)-5-(3-methanesulfonyl-phenyl)-1-(4-{1H-pyrrolo [2,3-b]pyridin-4-yl}benzoyl) pyrrolidin-3-ol], for which the IC50 came to 614 nM.

As to `COc1cccc(C2CCCN2C(=O)c2ccc(-c3cn[nH]c3)c(OC)c2)c1` (centres unmarked) [Example 12, 4-{2-methoxy-4-[2-(3-methoxyphenyl)pyrrolidine-1-carbonyl]phenyl}-1H-pyrazole], the IC50 amounted to 12.6 nM.

For `COc1cc(C(=O)N2CC(O)C[C@@H]2c2cccc(C(=O)NC3CCC3)c2)ccc1-c1cn[nH]c1` (stereo partly drawn) [Example 54, N-cyclobutyl-3-[(2R)-4-hydroxy-1-[3-methoxy-4-(1H-pyrazol-4-yl)benzoyl]pyrrolidin-2-yl]benzamide], the half-maximal inhibitory concentration (IC50) worked out at 5.09 nM.

Molecule `COc1cc(C(=O)N2CCCC2c2cccc(-c3ccn[nH]3)c2)ccc1-c1cn[nH]c1` (centres unmarked) [Example 77, 4-(2-methoxy-4-{2-[3-(1H-pyrazol-5-yl)phenyl]pyrrolidine-1-carbonyl}phenyl)-1H-pyrazole] displayed a half-maximal inhibitory concentration (IC50) of 887 nM.

In turn, `COc1cc(C(=O)N2CCCC2c2ccccc2F)ccc1-c1cn[nH]c1` (centres unmarked) [Example 20, 4-{4-[2-(2-fluorophenyl)pyrrolidine-1-carbonyl]-2-methoxyphenyl}-1H-pyrazole] returned an IC50 of 14.7 nM.

Molecule `COc1cccc(C2CCCCN2C(=O)c2ccc(-c3cn[nH]c3)c(OC)c2)c1` (centres unmarked) [Example 9, 1-[3-methoxy-4-(1H-pyrazol-4-yl)benzoyl]-2-(3-methoxy-phenyl) piperidine] displayed a 50% inhibitory concentration (IC50) of 673 nM.

For `COc1cccc(C2CCCN2C(=O)c2ccc(-c3cn[nH]c3)c(OC)c2)c1` (centres unmarked) [Example 11, 4-{2-methoxy-4-[2-(3-methoxyphenyl)pyrrolidine-1-carbonyl]phenyl}-1H-pyrazole], the IC50 was determined as 1630 nM.

For the molecule `COc1cc(C(=O)N2CC(F)C[C@@H]2c2cccc(C(=O)NC3CC3)c2)ccc1-c1cn[nH]c1` (stereo partly drawn) [Example 78, N-Cyclopropyl-3-[(2R)-4-fluoro-1-[3-methoxy-4-(1H-pyrazol-4-yl)benzoyl]pyrrolidin-2-yl]benzamide], the concentration for half-maximal inhibition (IC50) is 4.7 nM.

As to `COc1cc(C(=O)N2C[C@H](N)C[C@@H]2c2ccccc2F)ccc1-c1cn[nH]c1` [Example 107, (3R,5R)-5-(2-Fluorophenyl)-1-[3-methoxy-4-(1H-pyrazol-4-yl)benzoyl] pyrrolidin-3-amine], the IC50 was found to be 1.65 nM.

`COc1cc(C(=O)N2CCCC2c2cccc(S(N)(=O)=O)c2)ccc1-c1cn[nH]c1` (centres unmarked) [Example 18, 3-{1-[3-methoxy-4-(1H-pyrazol-4-yl)benzoyl]pyrrolidin-2-yl} benzene-1-sulfonamide] showed an IC50 of 2.79 nM.

In general, IC50 refers to the point on the concentration scale where inhibition reaches its midpoint.
